{"source": "paper PMC10526274", "about": "“Epithelial-Immune Cell Crosstalk Determines the Activation of Immune Cells In Vitro by the Human Cathelicidin LL-37 at Low Physiological Concentrations” (Biomolecules, 2023)", "test_system": "Caco-2/moDCs co-culture", "test": "Multiplex xMAP cytokine levels, Caco-2/moDCs co-culture stimulated with LL-37", "assay_type": "cell-based, human", "settings": "moDCs/Caco-2 co-culture, 1 µM LL-37, 24 h, n=2", "description": "Caco-2 cell line (ATCC HTB-37) was cultured in a humidified CO2-incubator (5% CO2, 37 °C) in the complete DMEM/F12 (1:1) medium (Gibco, Waltham, MA, USA) containing 10% fetal bovine serum (FBS, Gibco) and 1X antibiotic–antimycotic solution (Gibco). To stabilize the cell phenotype, Caco-2 cells have been subcultivated three times before seeding on the filter supports. Then, Caco-2 cells were seeded at a density of 2 × 10^5 cells/cm^2 onto 24-well Millicell cell culture inserts (PC, 0.4-μm pore size, 0.6 cm^2 surface area, cat. #PIHP01250) (Millipore, Burlington, MA, USA), precoated with 0.2% bovine gelatin (Sigma-Aldrich, Saint Louis, MO, USA). After seeding, Caco-2 cells were grown in the same complete medium with re-feeding every 2–3 days until polarization of the monolayer occurred. The functional polarity of the monolayers was developed when transepithelial electrical resistance (TEER) between the apical and basolateral surfaces of the monolayers reached […] as measured by the electrical resistance system Millicell-ERS Voltohmmeter (Millipore, Burlington, MA, USA). Grown cell monolayers were used in transport and cytokine production experiments between the 21st and 29th days.\nPeripheral blood mononuclear cells (PBMCs) from a healthy donor were purchased from the American Type Culture Collection (ATCC PCS-800-011). Blood monocytes were isolated from PBMCs by plastic adhesion. Mature monocyte-derived dendritic cells (moDCs) were generated in vitro from peripheral blood monocytes, according to Nair et al.. Briefly, monocytes were cultured in a humidified CO2-incubator (5% CO2, 37 °C) in the complete RPMI-1640 medium (Gibco) with 10% FBS, antibiotics, and supplemented with a cytokine cocktail containing 500 U/mL rhIL-4 and 800 U/mL rhGM-CSF (both Sci-Store, Moscow, Russia). On the third day, the medium was replaced by the same fresh medium with FBS, antibiotics, and the cytokine cocktail. Induction of maturation of the immature monocyte-derived dendritic cells was performed on the 5th day by replacing the medium with the complete RPMI-1640 medium (Gibco) with 10% FBS and antibiotics, supplemented with a cytokine cocktail containing 500 U/mL rhIL-4, 800 U/mL rhGM-CSF (both Sci-Store, Moscow, Russia), and 100 U/mL rhTNF-α (Sigma-Aldrich), and subjected to subsequent incubation of the culture for 4 more days.\nPrimary blood monocytes, moDCs, and NKT cells were seeded in 600 µL of complete RPMI-1640 with 10% Human AB serum (Capricorn Scientific, Ebsdorfergrund, Germany) and supplemented with 1X antibiotic–antimycotic solution into the wells of 24-well plates at a density of 3–7 × 10^5 cells/well 24 h before the experiment. Then, 24 h later, the medium in each well was replaced by the same medium with 1 µM of LL-37 for the sample wells or fresh medium alone for the control wells, and the permeable inserts with the Caco-2 monolayer with TEER > 400 Ω × cm^2, containing 400 μL of the complete medium in their apical chamber, were immediately placed into the appropriate wells. Also, inserts with the Caco-2 monolayer were placed in cell-free wells of 24-well plates in the same complete RPMI-1640 medium with or without 1 µM of LL-37 as controls. Cells were kept in a CO2-incubator (5% CO2, 37 °C) for another 24 h. Then, culture medium from each well was collected, centrifuged, and frozen at −70 °C.\nTo quantitatively evaluate a broad spectrum of analytes secreted by human cell cultures at the protein level, multiplex xMAP technology was used. […]", "note": "Where “and” joins values, the source holds several entries; their conditions need not be identical. Identical values can stand only once.", "data": [{"substance": "LL-37: the only human cathelicidin, host defense antimicrobial peptide of 37 a.a. residues, produced by solid-phase peptide synthesis", "values": [{"measurement": "IL-2 level", "setting": "control 0.75", "result": 1.12, "unit": "pg/mL"}, {"measurement": "FLT-3L level", "setting": "control 0.87", "result": 0.93, "unit": "pg/mL"}, {"measurement": "IL-3 level", "setting": "control 0.91", "result": 0.91, "unit": "pg/mL"}, {"measurement": "IFNg level", "setting": "control 2", "result": 2.28, "unit": "pg/mL"}, {"measurement": "IL-18 level", "setting": "control 2.49", "result": 1.42, "unit": "pg/mL"}, {"measurement": "IL-15 level", "setting": "control 3.19", "result": 3.42, "unit": "pg/mL"}, {"measurement": "IL-4 level", "setting": "control 4.19", "result": 6.58, "unit": "pg/mL"}, {"measurement": "IL-5 level", "setting": "control 4.46", "result": 2.93, "unit": "pg/mL"}, {"measurement": "TGF-a level", "setting": "control 5.8", "result": 5.22, "unit": "pg/mL"}, {"measurement": "IL-1b level", "setting": "control 5.83", "result": 5.83, "unit": "pg/mL"}, {"measurement": "EGF level", "setting": "control 6.26", "result": 6.51, "unit": "pg/mL"}, {"measurement": "IL-9 level", "setting": "control 7.45", "result": 7.45, "unit": "pg/mL"}, {"measurement": "IFNa2 level", "setting": "control 8.64", "result": 10.16, "unit": "pg/mL"}, {"measurement": "TNFb level", "setting": "control 9.34", "result": 15.39, "unit": "pg/mL"}, {"measurement": "GM-CSF level", "setting": "control 10.7", "result": 8.75, "unit": "pg/mL"}, {"measurement": "IL-1RA level", "setting": "control 11.1", "result": 13.57, "unit": "pg/mL"}, {"measurement": "G-CSF level", "setting": "control 16.25", "result": 14.89, "unit": "pg/mL"}, {"measurement": "Fractalkine level", "setting": "control 22.95", "result": 25.92, "unit": "pg/mL"}, {"measurement": "IL-6 level", "setting": "control 23.82", "result": 26.83, "unit": "pg/mL"}, {"measurement": "IL-22 level", "setting": "control 26.11, p = 0.10", "result": "37 pg/mL and 37.22 pg/mL"}, {"measurement": "TNFa level", "setting": "control 41.39", "result": 44.26, "unit": "pg/mL"}, {"measurement": "IL-13 level", "setting": "control 43.59", "result": 50.71, "unit": "pg/mL"}, {"measurement": "FGF-2 level", "setting": "control 47.27", "result": 47.27, "unit": "pg/mL"}, {"measurement": "IL-12 (p40) level", "setting": "control 57.35", "result": 55.01, "unit": "pg/mL"}, {"measurement": "GROa level", "setting": "control 60.81", "result": 70.33, "unit": "pg/mL"}, {"measurement": "IL-27 level", "setting": "control 63.66", "result": 70.72, "unit": "pg/mL"}, {"measurement": "PDGF-AB/BB level", "setting": "control 72.4", "result": 83.52, "unit": "pg/mL"}, {"measurement": "IL-10 level", "setting": "control 81.69, p = 0.0035", "result": "52 pg/mL and 52.63 pg/mL"}, {"measurement": "IP-10 level", "setting": "control 90.92", "result": 118.06, "unit": "pg/mL"}, {"measurement": "sCD40L level", "setting": "control 95.47", "result": 95.47, "unit": "pg/mL"}, {"measurement": "RANTES level", "setting": "control 142.05", "result": 223.43, "unit": "pg/mL"}, {"measurement": "M-GSF level", "setting": "control 168.7", "result": 172.56, "unit": "pg/mL"}, {"measurement": "PDGF-AA level", "setting": "control 252.85", "result": 237.55, "unit": "pg/mL"}, {"measurement": "MCP-3 level", "setting": "control 376.42", "result": 372.12, "unit": "pg/mL"}, {"measurement": "VEGFa level", "setting": "control 723.09", "result": 1786, "unit": "pg/mL"}, {"measurement": "MIP-1a level", "setting": "control 1271", "result": 1487, "unit": "pg/mL"}, {"measurement": "MIP-1b level", "setting": "control 1340", "result": 1789, "unit": "pg/mL"}, {"measurement": "MCP-1 level", "setting": "control 2519", "result": 1925, "unit": "pg/mL"}, {"measurement": "IL-8 level", "setting": "control 2799", "result": 3052, "unit": "pg/mL"}, {"measurement": "MIG level", "setting": "control 25746", "result": 25834, "unit": "pg/mL"}, {"measurement": "IL-7 level", "setting": "control <0.30", "result": "<0.30↓ pg/ml"}, {"measurement": "IL-17A level", "setting": "control <0.70", "result": "<0.70↓ pg/ml"}, {"measurement": "IL-1a level", "setting": "control <1.30", "result": "<1.30↓ pg/ml"}, {"measurement": "IL-12 (p70) level", "setting": "control <1.71", "result": "<1.71↓ pg/ml"}, {"measurement": "Eotaxin level", "setting": "control <2.91", "result": 3.03, "unit": "pg/mL"}, {"measurement": "IL-17F level", "setting": "control <12.19", "result": "<12.19↓ pg/ml"}, {"measurement": "IL-17E/IL-25 level", "setting": "control <19.43", "result": "<19.43↓ pg/ml"}, {"measurement": "MDC level", "setting": "control >14590", "result": 6291, "unit": "pg/mL"}]}]}
